Data reported in the supplement of paper PMC10883282.
Counter-ions that a name gives are not always drawn. ± gives the standard deviation of the averaged measurements.

System: SW982
Assay: relative viability vs DMSO control (72 h) (fraction); higher = more viable cells
Method in brief: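 Sarcoma cell lines went into 384-well plates at densities chosen to reach 80–90% confluence. After 24 h, each well received 2.5 µl of serially diluted compound, with source plates running from 10 mM to 0.0002 mM, and the plates were kept 72 h at 37 °C, 5% CO2, alongside 0.1% DMSO vehicle and a 5 µM positive control. Relative viability was derived from ATPLite readings as percent growth and averaged over up to triplicate wells. The data were then rescaled so that 1 stands for full and 0 for none.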

Row | SMILES | relative viability (0.00017 µM) | relative viability (0.00051 µM) | relative viability (0.00152 µM) | relative viability (0.00457 µM) | relative viability (0.01372 µM) | relative viability (0.04115 µM) | relative viability (0.1235 µM) | relative viability (0.3704 µM) | relative viability (1.111 µM) | relative viability (3.333 µM) | relative viability (10 µM)
1 | CC[C@H](Nc1ncnc2[nH]cnc12)c1nc2cccc(F)c2c(=O)n1-c1ccccc1 [Idelalisib] | 1.06 ± 0.033 | 1.06 ± 0.039 | 1.05 ± 0.039 | 1.07 ± 0.027 | 1.07 ± 0.055 | 1.08 ± 0.033 | 1.07 ± 0.04 | 1.067 ± 0.0099 | 1 ± 0.029 | 0.948 ± 0.074 | 0.778 ± 0.011
2 | COc1cccc2c1C(=O)c1c(O)c3c(c(O)c1C2=O)C[C@@](O)(C(=O)CO)C[C@@H]3O[C@H]1C[C@H](N)[C@H](O)[C@H](C)O1 [Doxorubicin Hydrochloride] | 1.05 ± 0.0095 | 1.05 ± 0.057 | 1.07 ± 0.025 | 1.04 ± 0.035 | 0.796 ± 0.022 | 0.457 ± 0.025 | 0.326 ± 0.019 | 0.1607 ± 0.0012 | 0.127 ± 0.0062 | 0.165 ± 0.005 | 0.139 ± 0.0092
3 | Cc1ccc(NC(=O)c2ccc(CN3CCN(C)CC3)cc2)cc1Nc1nc(-c2cccnc2)cs1 [Masitinib] | 0.965 ± 0.027 | 0.996 ± 0.01 | 0.989 ± 0.015 | 0.983 ± 0.02 | 0.97 ± 0.026 | 0.961 ± 0.033 | 0.923 ± 0.025 | 0.89 ± 0.027 | 0.784 ± 0.045 | 0.513 ± 0.03 | 0.0613 ± 0.0081
4 | Cn1cnc2c(F)c(Nc3ccc(Br)cc3F)c(C(=O)NOCCO)cc21 [Binimetinib] | 0.974 ± 0.046 | 1.04 ± 0.019 | 1.07 ± 0.018 | 0.981 ± 0.056 | 0.99 ± 0.05 | 0.92 ± 0.058 | 0.833 ± 0.043 | 0.831 ± 0.051 | 0.809 ± 0.038 | 0.786 ± 0.035 | 0.765 ± 0.042
5 | CC(=O)Nc1cccc(-n2c(=O)n(C3CC3)c(=O)c3c(Nc4ccc(I)cc4F)n(C)c(=O)c(C)c32)c1 [Trametinib] | 0.993 ± 0.045 | 0.988 ± 0.044 | 0.981 ± 0.028 | 0.938 ± 0.051 | 0.893 ± 0.095 | 0.866 ± 0.07 | 0.847 ± 0.084 | 0.848 ± 0.038 | 0.858 ± 0.049 | 0.838 ± 0.049 | 0.799 ± 0.027
6 | Cc1cc(Nc2ncnc3ccc(NC4=NC(C)(C)CO4)cc23)ccc1Oc1ccn2ncnc2c1 [Tucatinib] | 1.05 ± 0.062 | 1.11 ± 0.02 | 1.1 ± 0.022 | 1.09 ± 0.031 | 1.078 ± 0.0072 | 1.088 ± 0.0077 | 1.08 ± 0.035 | 1.059 ± 0.01 | 1.08 ± 0.046 | 1.1 ± 0.044 | 1.06 ± 0.026
7 | CCN1CCN(Cc2ccc(Nc3ncc(F)c(-c4cc(F)c5nc(C)n(C(C)C)c5c4)n3)nc2)CC1 [Abemaciclib] | 1.05 ± 0.036 | 1.06 ± 0.046 | 1.04 ± 0.043 | 1.06 ± 0.041 | 1.07 ± 0.035 | 0.987 ± 0.031 | 0.787 ± 0.046 | 0.593 ± 0.02 | 0.469 ± 0.013 | 0.302 ± 0.12 | 0.0803 ± 0.12
8 | Cc1nc(-c2cn3c(n2)-c2ccc(-c4cnn(C(C)(C)C(N)=O)c4)cc2OCC3)n(C(C)C)n1 [Taselisib] | 1.03 ± 0.045 | 1.04 ± 0.023 | 1.02 ± 0.043 | 1.02 ± 0.02 | 1.02 ± 0.034 | 0.968 ± 0.02 | 0.898 ± 0.026 | 0.7957 ± 0.0075 | 0.633 ± 0.035 | 0.506 ± 0.016 | 0.339 ± 0.02
9 | C[C@@H]1COCCN1c1cc(-c2ccnn2C)c2ccnc(-c3ccn[nH]3)c2n1 | 1.04 ± 0.031 | 1.05 ± 0.052 | 1.05 ± 0.056 | 1.04 ± 0.015 | 0.989 ± 0.028 | 0.685 ± 0.039 | 0.499 ± 0.009 | 0.322 ± 0.011 | 0.1893 ± 0.0012 | 0.149 ± 0.002 | 0.142 ± 0.0075
10 | CO[C@H]1C[C@@H]2CC[C@@H](C)[C@@](O)(O2)C(=O)C(=O)N2CCCC[C@H]2C(=O)O[C@H]([C@H](C)C[C@@H]2CC[C@@H](OP(C)(C)=O)[C@H](OC)C2)CC(=O)[C@H](C)/C=C(\C)[C@@H](O)[C@@H](OC)C(=O)[C@H](C)C[C@H](C)/C=C/C=C/C=C/1C [Ridaforolimus] | 1.05 ± 0.027 | 0.956 ± 0.041 | 0.867 ± 0.06 | 0.825 ± 0.066 | 0.755 ± 0.074 | 0.711 ± 0.036 | 0.679 ± 0.015 | 0.652 ± 0.028 | 0.652 ± 0.019 | 0.619 ± 0.0085 | 0.634 ± 0.03
11 | CCc1cc2c(cc1N1CCC(N3CCOCC3)CC1)C(C)(C)c1[nH]c3cc(C#N)ccc3c1C2=O [Alectinib] | 1.05 ± 0.043 | 1.06 ± 0.035 | 1.058 ± 0.0041 | 1.06 ± 0.026 | 1.04 ± 0.022 | 1.05 ± 0.017 | 1.032 ± 0.0038 | 1.05 ± 0.022 | 1.07 ± 0.019 | 1.06 ± 0.038 | 1.06 ± 0.046
12 | COCc1c(-c2cc3cc(C)cc(OC)c3s2)c2c(N)ncnn2c1CN1CCNC(=O)C1 [Rogaratinib] | 1.05 ± 0.019 | 1.06 ± 0.028 | 1.07 ± 0.058 | 1.06 ± 0.012 | 1.06 ± 0.027 | 1.07 ± 0.028 | 1.06 ± 0.065 | 1.06 ± 0.044 | 0.996 ± 0.024 | 0.728 ± 0.023 | 0.362 ± 0.0075
13 | C[C@@H]1CCN(C(=O)CC#N)C[C@@H]1N(C)c1ncnc2[nH]ccc12 [Tofacitinib] | 1.01 ± 0.036 | 1.05 ± 0.03 | 1.04 ± 0.03 | 1.03 ± 0.031 | 1.07 ± 0.037 | 1.03 ± 0.05 | 1.05 ± 0.05 | 1.06 ± 0.035 | 1.05 ± 0.042 | 1.04 ± 0.034 | 0.93 ± 0.081
14 | O=C(Cc1ccc(-c2ccc(OCCN3CCOCC3)cc2)cn1)NCc1ccccc1 [KX2-391] | 1.01 ± 0.037 | 1.07 ± 0.021 | 1.06 ± 0.04 | 1.06 ± 0.013 | 1.037 ± 0.0061 | 0.661 ± 0.02 | 0.299 ± 0.019 | 0.269 ± 0.017 | 0.265 ± 0.023 | 0.2804 ± 0.00064 | 0.278 ± 0.0036
15 | C[C@@H](c1ccc2nccn2c1)n1nnc2ncc(-c3cnn(C)c3)nc21 [Volitinib] | 1.05 ± 0.02 | 1.07 ± 0.012 | 1.05 ± 0.012 | 1.05 ± 0.056 | 1.07 ± 0.03 | 1.06 ± 0.022 | 1.03 ± 0.021 | 1.07 ± 0.016 | 1.04 ± 0.034 | 1.07 ± 0.011 | 1.06 ± 0.025
16 | C[C@]1(O)C[C@@H](c2nc(-c3ccc4ccc(-c5ccccc5)nc4c3)c3c(N)nccn32)C1 [Linsitinib] | 1.01 ± 0.028 | 1.04 ± 0.026 | 1.03 ± 0.028 | 1.05 ± 0.031 | 1.05 ± 0.028 | 1.02 ± 0.041 | 0.918 ± 0.041 | 0.875 ± 0.035 | 0.824 ± 0.045 | 0.79 ± 0.035 | 0.583 ± 0.021
17 | COc1cc2c(Oc3ccc4[nH]c(C)cc4c3F)ncnc2cc1OCCCN1CCCC1 [Cediranib] | 1.04 ± 0.034 | 1.058 ± 0.007 | 1.06 ± 0.044 | 1.06 ± 0.027 | 1.06 ± 0.031 | 1.04 ± 0.013 | 1.06 ± 0.029 | 0.967 ± 0.07 | 0.914 ± 0.077 | 0.959 ± 0.012 | 0.961 ± 0.01
18 | CC(C)(C)c1cc(NC(=O)Nc2ccc(-c3cn4c(n3)sc3cc(OCCN5CCOCC5)ccc34)cc2)no1 [Quizartinib] | 1.06 ± 0.028 | 1.05 ± 0.017 | 1.05 ± 0.03 | 1.05 ± 0.029 | 1.06 ± 0.017 | 1.06 ± 0.022 | 1.06 ± 0.027 | 1.04 ± 0.031 | 1.05 ± 0.017 | 1.05 ± 0.039 | 1.05 ± 0.039
19 | COc1cc2/c(=N/c3ccc(Br)cc3F)nc[nH]c2cc1OCC1CCN(C)CC1 [Vandetanib] | 0.997 ± 0.044 | 1 ± 0.035 | 0.977 ± 0.021 | 1.01 ± 0.033 | 1.01 ± 0.078 | 1.03 ± 0.041 | 0.983 ± 0.075 | 0.873 ± 0.077 | 0.699 ± 0.084 | 0.291 ± 0.032 | 0.0207 ± 0.0067
